Data taken from ChEMBL document CHEMBL1144089, “New geodiamolides from the sponge Cymbastela sp. collected in Papua New Guinea” (J Nat Prod, 1999).
Values after ≈ are worked out from the molar mass of the structure shown.

Assays:
[1] = Cytotoxicity against human U373 cells; type: functional, cell-based, U-373MG ATCC; conditions: U373 MG
HEY = assay: Cytotoxicity against human HEY cells; type: functional, cell-based

Compound | IC50 ([1]; read-out: IC50) [µg/mL] | IC50 (HEY; read-out: IC50) [µg/mL] | IC50 [1] [µg/mL] | IC50 (HEY) [µg/mL]
C/C1=C\[C@H](C)C[C@H](C)OC(=O)[C@H](C)NC(=O)[C@@H](Cc2ccc(O)c(I)c2)N(C)C(=O)[C@H](C)NC(=O)[C@@H](C)C1 [GEODIAMOLIDE A] | 16 (≈ 24.9 µM) | 43 (≈ 67 µM) |  | 
C=C1C[C@H](C)C(=O)N[C@@H](C)C(=O)N(C)[C@H](Cc2ccc(O)c(I)c2)C(=O)N[C@@H](C)C(=O)O[C@@H](C)C[C@@H](C)C1=O [GEODIAMOLIDE G] |  |  | 7.7 (≈ 11.7 µM) | 8.6 (≈ 13.1 µM)
